Measured values published in US7759391B2, “Pharmaceutical composition comprising thiacremonone for treating colon cancer” (Chungbuk National University Industry Academic Cooperation …, priority 2007, dated 2010).
Values after ≈ are worked out from the molar mass of the structure shown.

Columns and labels:
[1] = tested on: normal colon Caco-2 cells; assay: Cell viability, CCK-8 assay, normal cells; format: cell-based; details: Caco-2, 30-150 μg/ml, 12-48 h
Experimental: (§1) Panel b of FIGS. 2A-2C: Cell viability was determined by CCK-8 assay as described in Materials and Methods. SW620 (FIG. 2A) and HCT116 (FIG. 2B) colon cancer cells as well as normal cells (Caco-2) (FIG. 2C) were treated with various doses (30-150 μg/ml) of thiacremonone for different times (12-48 h). Values are each the mean±S.D. of three experiments, each performed in triplicate.
(§2) SW620 and HCT116 colon cancer cells were plated at a density of 10^4 cells/well in 96-well plates per 100 μl medium. To determine the appropriate concentration that is not cytotoxic to the cells, the cytotoxic effect was evaluated in cells cultured for 12, 24, 36, and 48 h using the cell counting kit-8 assay kit according to the manufacturer's instructions (Dojindo, Gaithersburg, Md., USA). Briefly, 10 μl of the CCK-8 solution was added to cells cultured for the designated time. The plates were incubated for 1-4 h in the incubator. The resulting color was assayed at […] using a microplate absorbance reader (Sunrise, Tecan, Switzerland). Each assay was carried out in triplicate.

[2] = tested on: HCT116 colon cancer cells; assay: Cell viability / growth, CCK-8 assay, HCT116; format: cell-based; details: Homo sapiens, HCT-116, HCT116, 48 h, read-out: IC50 of cell growth inhibition
Experimental: as §1, §2

[3] = tested on: SW620 colon cancer cells; assay: Western blot of apoptosis regulatory proteins, SW620; format: cell-based, human; details: SW620, 30-150 μg/ml, 24 h
Experimental: (§3) The cells were treated with different concentrations (30-150 μg/ml) of thiacremonone at 37° C. for 24 h. Equal amounts of total proteins (50 μg/lane) were subjected to 12% SDS-PAGE. Expressions of Bax, cleaved caspase-3, cleaved PARP, Bcl-2, cIAP1/2, XIAP, and β-actin were detected by western blotting using specific antibodies. β-Actin protein was used an internal control. Panel a: SW620 colon cancer cells. Panel b: HCT116 colon cancer cells. Each band is representative of three independent experiments.
(§4) Cultured cells were washed twice with 1×PBS, followed by the addition of 1 ml of PBS, and the cells were scraped into a cold Eppendorf tube. Cells were homogenized with lysis buffer [50 mM Tris pH 8.0, 150 mM NaCl, 0.02% sodium azide, 0.2% SDS, 1 mM PMFS, 10 μl/ml aprotinin, 1% igapel 630 (Sigma-Aldrich, St. Louis, Mo., USA), 10 mM NaF, 0.5 mM EDTA, 0.1 mM EGTA, and 0.5% sodium deoxycholate] and centrifuged at 23,000×g for 15 min. The protein concentration was measured by the Bradford method (Bio-Rad Protein Assay; Bio-Rad Laboratories Inc., Hercules, Calif., USA), and equal amount of proteins (50 μg) were separated on a SDS/12%-polyacrylamide gel and then transferred to a Hybond ECL nitrocellulose membrane (Amersham Pharmacia Biotech Inc., Piscataway, N.J., USA). Blots were blocked for 2 h at room temperature with 5% (w/v) non-fat dried milk in Tris-buffered saline [10 mM Tris (pH 8.0) and 150 mM NaCl] solution containing 0.05% tween-20. […] Immunoreactive proteins were detected with the ECL Western blotting detection system. The relative density of the protein bands was scanned by densitometry using MyImage (SLB) and quantified by Labworks 4.0 software (UVP Inc.).

[4] = tested on: SW620 colon cancer cells; assay: Apoptosis detection, DAPI/TUNEL staining, SW620; format: cell-based, human; details: 24 h
Experimental: (§5) FIG. 3B: The apoptotic index was determined as the DAPI-stained TUNEL-positive cell number counted. Values are mean±S.E.M. of three experiments, each performed in triplicate. *P<0.05 indicates statistically significant differences from the untreated group.
(§6) Apoptosis assay was first performed by using 4,6-diamino-2-phenylindole (DAPI) staining. SW620 and HCT116 human colon cancer cells were cultured in the absence or presence of increasing concentrations of thiacremonone, and induction of apoptotic cell death was evaluated after 24 h. Apoptotic cells were determined by the morphological changes after DAPI staining under fluorescence microscopic observation (DAS microscope, 100× or 200×: Leica Microsystems, Inc., Deefield, Ill., USA). Apoptosis was also evaluated by TUNEL staining assay. In short, cells were cultured on 8-chamber slides. After treatment with thiacremonone (30-150 μg/ml) for 24 h, the cells were washed twice with PBS and fixed by incubation in 4% paraformaldehyde in PBS for 1 h at room temperature. TUNEL assays were performed by using the in situ Cell Death Detection Kit (Roche Diagonostics GmbH, Mannheim, Germany) according to manufacturer's instructions. Total number of cells in a given area was determined by using DAPI and TUNEL staining. The apoptotic index was determined as the number of DAPIstained TUNEL-positive cells divided by the total cell number counted ×100.

[5] = tested on: SW620 colon cancer cells; assay: Cell viability / growth, CCK-8 assay, SW620; format: cell-based; details: Homo sapiens, SW-620, read-out: IC50 of cell growth inhibition, heading: IC50 of cell growth inhibition, SW620, 48 h
Experimental: as §1, §2

[6] = tested on: NF-κB; assay: NF-κB luciferase reporter assay (pNF-κB-Luc), HCT116; format: cell-based, human; details: HCT116, 30-150 μg/ml, 8 h
Experimental: (§7) FIG. 1B: Colon cancer cells were transfected with pNF-κB-Luc plasmid (5×NF-κB) and then activated with TNF-α (150 U/ml) alone or TNF-α plus different concentrations (30-150 μg/ml) of thiacremonone at 37° C. in both SW620 (panel a and b) and HCT116 (panel c and d) colon cancer cells, and then the luciferase activity was determined. All values represent mean±S.D. of three independent experiments performed in triplicate. RLU is relative to luciferase activity in transfected unstimulated cells. *P<0.05 indicates statistically significant differences from the TNF-α-treated group.
(§8) SW620 and HCT116 human colon cells (2.5×10^5 cells/cm^2) were plated in 24-well plates and transiently transfected with pNF-κB-Luc plasmid (5×NF-κB; Stratagene, La Jolla, Calif., USA) using a mixture of plasmid and lipofectAMINE PLUS in OPTI-MEN according to manufacturer's specifications (Invitrogen, Carlsbad, Calif., USA). The transfected cells were treated with tumor necrosis factor-α (TNF-α) (10 ng/ml) or TPA (50 nM) and different concentrations (30-150 μg/ml) of thiacremonone for 8 h. Luciferase activity was measured by using the luciferase assay kit (Promega, Madison, Wis., USA) according to the manufacturer's instructions (WinGlow, Bad Wildbad, Germany).

[7] = tested on: HCT116 colon cancer cells; assay: Western blot of apoptosis regulatory proteins, HCT116; format: cell-based, human; details: HCT116, 30-150 μg/ml, 24 h
Experimental: as §3, §4

[8] = target: T1, NF-κB (Homo sapiens, UniProt Q04206); assay: Gel electromobility shift assay (EMSA), NF-κB DNA binding activity, HCT116; format: cell-based; details: HCT116, 30-150 μg/ml, 1 h
T1 construct: endogenous in cells; host or cells: SW620 and HCT116 human colon cancer cells (ATCC)
T1 sequence (Q04206 whole entry): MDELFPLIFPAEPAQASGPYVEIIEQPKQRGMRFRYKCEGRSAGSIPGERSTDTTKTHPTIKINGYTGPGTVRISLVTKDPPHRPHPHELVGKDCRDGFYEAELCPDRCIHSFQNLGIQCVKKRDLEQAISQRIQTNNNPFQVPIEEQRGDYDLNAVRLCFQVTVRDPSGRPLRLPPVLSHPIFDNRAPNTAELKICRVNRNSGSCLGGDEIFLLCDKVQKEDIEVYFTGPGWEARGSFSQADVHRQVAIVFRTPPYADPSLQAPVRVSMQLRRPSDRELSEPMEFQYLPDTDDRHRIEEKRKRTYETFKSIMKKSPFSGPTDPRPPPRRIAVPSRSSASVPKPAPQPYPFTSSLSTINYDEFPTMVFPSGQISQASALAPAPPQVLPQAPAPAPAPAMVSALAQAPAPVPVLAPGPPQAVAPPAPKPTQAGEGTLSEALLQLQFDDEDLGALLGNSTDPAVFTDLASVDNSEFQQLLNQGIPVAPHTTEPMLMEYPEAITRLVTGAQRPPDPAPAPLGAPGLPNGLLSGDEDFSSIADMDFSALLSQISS
T1 sequence (P19838 1-433 partner limits assumed): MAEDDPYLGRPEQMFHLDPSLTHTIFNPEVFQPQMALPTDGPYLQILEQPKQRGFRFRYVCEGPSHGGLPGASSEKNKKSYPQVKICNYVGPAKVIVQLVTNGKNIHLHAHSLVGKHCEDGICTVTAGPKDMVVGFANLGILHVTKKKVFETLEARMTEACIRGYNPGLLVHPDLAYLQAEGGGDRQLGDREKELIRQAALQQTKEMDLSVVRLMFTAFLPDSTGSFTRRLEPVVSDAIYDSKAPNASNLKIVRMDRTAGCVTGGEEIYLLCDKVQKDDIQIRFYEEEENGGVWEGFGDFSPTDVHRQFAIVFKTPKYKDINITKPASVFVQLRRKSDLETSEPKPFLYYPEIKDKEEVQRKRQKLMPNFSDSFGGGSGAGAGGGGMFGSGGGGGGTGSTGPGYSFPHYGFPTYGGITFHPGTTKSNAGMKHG
Experimental: (§9) FIG. 1A: Nuclear extract from SW620 (panel a) and HCT116 (panel b) colon cancer cells treated with thiacremonone (30-150 μg/ml) for 1 h was incubated in binding reactions of ^32P-end-labeled oligonucleotide containing the κB sequence. The activation of NF-κB was investigated using EMSA as described in Materials and Methods. For competition assays, nuclear extracts from cells treated with TNF-α were incubated for 1 h before EMSA with unlabled NF-κB oligonucleotide or labeled NF-κB oligonucleotide. For supershift assays, nuclear extracts from cells treated with TNF-α were incubated for 1 h before EMSA with specific antibodies against the p50 and p65 NF-κB isoforms. SS indicates supershift assay using p65 antibody (panel c). Quantification of band intensities from three independent experimental results performed by densitometry (Imaging System) and the value under each band indicated as fold difference from the untreated control group.
(§10) Gel shift assay was performed according to the manufacturer's recommendations (Promega, Madison, Wis., USA). […] The relative density of the DNA-protein binding bands was scanned by densitometry using MyImage (SLB, Seoul, Korea), and quantified by Labworks 4.0 software (UVP Inc., Upland, Calif., USA).

[9] = tested on: NF-κB; assay: NF-κB luciferase reporter assay (pNF-κB-Luc), SW620; format: cell-based, human; details: SW620, 30-150 μg/ml, 8 h
Experimental: as §7, §8

[10] = target: T1, NF-κB; assay: Gel electromobility shift assay (EMSA), NF-κB DNA binding activity, SW620; format: cell-based; details: SW620, 30-150 μg/ml, 1 h
Experimental: as §9, §10

[11] = tested on: SW620 xenograft; assay: SW620 colon xenograft in nude mice; format: in vivo; details: for tumor volume, % of sham control group: day 31
Excerpt: To elucidate the anticancer effect of thiacremonone in vivo, the tumor growth on colon xenograft bearing nude mice following thiacremonone treatments were investigated. In SW620 xenograft studies, thiacremonone was administrated intraperitoneally twice per week for 4 weeks to mice with tumors ranging from 100 to 300 mm3 of tumor volume. The mice were weighted twice per week. The change of body weights between saline and thiacremonone-administrated mice (n=10) was not different during the experiment.
FIG. 5 represents the relative tumor growth delay measured after treatment of thiacremonone (240 and 360 mg/kg for four weeks, n=10) in comparison with the sham control group (saline).

[12] = tested on: HCT116 colon cancer cells; assay: Apoptosis detection, DAPI/TUNEL staining, HCT116; format: cell-based, human; details: 24 h
Experimental: as §5, §6

## CC1=C(O)C(=O)C(C)(O)S1 (centres unmarked) [thiacremonone, 2,4-dihydroxy-2,5-dimethyl-thiophene-3-one]
[1]
  cytotoxic effect: no cytotoxic effect
[2]
  IC50: 130 µg/mL (≈ 812 µM)
[3]
  Expressions of apoptotic proteins Bax, cleaved caspases 3, cleaved PARP: increased
  expressions of antiapoptotic protein Bcl-2, cIAP1/2, XIAP and cyclin D1: decreased
  iNOS and COX-2 expression: inhibited the expressions dose-dependently
[4]; SW620, 30 μg/ml
  apoptotic cell number (DAPI-positive TUNEL-stained cells): 0%
[4]; SW620, 60 μg/ml
  apoptotic cell number (DAPI-positive TUNEL-stained cells): 0%
[4]; SW620, 90 μg/ml
  apoptotic cell number (DAPI-positive TUNEL-stained cells): 11%
[4]; SW620, 120 μg/ml
  apoptotic cell number (DAPI-positive TUNEL-stained cells): 25%
[4]; SW620, 150 μg/ml
  apoptotic cell number (DAPI-positive TUNEL-stained cells): 97%
[5]
  IC50: 105 µg/mL (≈ 655 µM)
[6]
  TNF-α and TPA induced NF-κB luciferase activity: inhibited TNF-α and TPA induced NF-κB luciferase activity dose-dependently
[7]
  Expressions of apoptotic proteins Bax, cleaved caspases 3, cleaved PARP: increased
  expressions of antiapoptotic protein Bcl-2, cIAP1/2, XIAP and cyclin D1: decreased
  iNOS and COX-2 expression: inhibited the expressions dose-dependently
[8]
  DNA binding activity of NF-κB: decreased DNA binding activity of NF-κB in a dose-dependent manner
[9]
  TNF-α and TPA induced NF-κB luciferase activity: inhibited TNF-α and TPA induced NF-κB luciferase activity dose-dependently
[10]
  DNA binding activity of NF-κB: decreased DNA binding activity of NF-κB in a dose-dependent manner
[11]; 240 mg/kg intraperitoneally twice per week for 4 weeks
  tumor volume, % of sham control group: 92.5%
[11]; 360 mg/kg intraperitoneally twice per week for 4 weeks
  tumor volume, % of sham control group: 59.1%
[11]; intraperitoneally twice per week for 4 weeks, nude mice
  change of body weights versus saline: not different
[12]; HCT116, 30 μg/ml
  apoptotic cell number: 0%
[12]; HCT116, 60 μg/ml
  apoptotic cell number: 0%
[12]; HCT116, 90 μg/ml
  apoptotic cell number: 29%
[12]; HCT116, 120 μg/ml
  apoptotic cell number: 95%
[12]; HCT116, 150 μg/ml
  apoptotic cell number: 98%
